Test results: patent US20100092575A1, “Method of making treatment materials and using same to treat algae and/or pests” (priority 2004, published 2010)

Assays:
[1] = system: flora and fauna in the water feature; settings: previous treatment method of the water hazard
Source text: A golf course water hazard in Northern California contained large mats (i.e., growths) of string algae during the summer months. The algae were predominantly confined to the edges of the water body. […] Furthermore, a special permit is needed to apply toxic copper sulfate.

[2] = aqueous; cited from earlier work

SMILES	effect on flora and fauna in the water feature [1]	pH values at which decomposition significantly increases [2]
O=S(=O)([O-])[O-].[Cu+2] [copper sulfate]	killed most of the flora and fauna	–
OO [hydrogen peroxide]	–	greater than 6
